Reference: ChEMBL document CHEMBL1777672, “Synthesis and antifungal activities of natural and synthetic biflavonoids” (2011)
≈ marks a conversion by molar mass, not a printed value. Calls of active or inactive are those of the source. The calls are words filed in the database; no cut-off is given here.

Legend:
Aspergillus niger [1] = assay: Antifungal activity against Aspergillus niger ATCC 16404 after 48 hrs by agar diffusion bioautography method; format: functional, organism-based
Aspergillus niger [2] = assay: Antifungal activity against Aspergillus niger ATCC 16404 after 48 hrs by broth microdilution technique; format: functional; conditions: ATCC 16404, 48 h
Fusarium solani = assay: Antifungal activity against Fusarium solani ATCC 36031 after 48 hrs by agar diffusion bioautography method; format: functional, organism-based
Aspergillus oryzae = assay: Antifungal activity against Aspergillus oryzae ATCC 10124 after 48 hrs by agar diffusion bioautography method; format: functional, organism-based
Candida albicans [3] = assay: Antifungal activity against Candida albicans ATCC 90028 after 48 hrs by agar diffusion bioautography method; format: functional, organism-based
Candida parapsilosis [4] = assay: Antifungal activity against Candida parapsilosis ATCC 22019 after 48 hrs by agar diffusion bioautography method; format: functional, organism-based
Cryptococcus neoformans [5] = assay: Antifungal activity against Cryptococcus neoformans ATCC 14116 after 72 hrs by agar diffusion bioautography method; format: functional, organism-based
[6] = Antifungal activity against Rhizopus stolonifer (+) ATCC 6227b after 48 hrs by agar diffusion bioautography method; format: functional
[7] = Antifungal activity against Rhizopus stolonifer (+) ATCC 6227b after 48 hrs by broth microdilution technique; format: functional
Candida parapsilosis [8] = assay: Antifungal activity against Candida parapsilosis ATCC 22019 after 48 hrs by broth microdilution technique; format: functional; conditions: Lodderomyces parapsilosis, ATCC 22019, 48 h
Cryptococcus neoformans [9] = assay: Antifungal activity against Cryptococcus neoformans ATCC 14116 after 72 hrs by broth microdilution technique; format: functional; conditions: ATCC 14116, 72 h
Candida albicans [10] = assay: Antifungal activity against Candida albicans ATCC 90028 after 48 hrs by broth microdilution technique; format: functional; conditions: ATCC 90028, 48 h

O=C1CC(c2ccc(O)c(-c3cc(C4CC(=O)c5ccc(O)cc5O4)ccc3O)c2)Oc2cc(O)ccc21 (centres undefined)
Activity (Aspergillus niger [1]): Active | MIC (Aspergillus niger [2]): 200 µM (≈ 102 µg/mL) | Activity (Fusarium solani): inactive | Activity (Aspergillus oryzae): inactive | Activity (Candida albicans [3]): inactive | Activity (Candida parapsilosis [4]): inactive | Activity (Cryptococcus neoformans [5]): inactive | Activity [6]: inactive

O=C1CC(c2ccc(O)cc2)Oc2cc(O)ccc21 (centres undefined)
MIC (Aspergillus niger [2]): > 800 µM

O=c1cc(-c2ccccc2)oc2ccccc12 [FLAVONE]
MIC (Aspergillus niger [2]): 800 µM (≈ 178 µg/mL) | MIC [7]: 100 µM (≈ 22.2 µg/mL) | MIC (Candida parapsilosis [8]): 200 µM (≈ 44.4 µg/mL) | MIC (Cryptococcus neoformans [9]): 100 µM (≈ 22.2 µg/mL)

C[C@@H]1[C@H](O)[C@@H](C)/C=C/C=C/C=C/C=C/C=C/C=C/C=C/[C@H](O[C@@H]2O[C@H](C)[C@@H](O)[C@H](N)[C@@H]2O)C[C@@H]2O[C@](O)(C[C@@H](O)C[C@@H](O)[C@H](O)CC[C@@H](O)C[C@@H](O)CC(=O)O[C@H]1C)C[C@H](O)[C@H]2C(=O)O
Activity (Aspergillus niger [1]): Active | Activity (Fusarium solani): Active | Activity (Aspergillus oryzae): Active | Activity (Candida albicans [3]): Active | Activity (Candida parapsilosis [4]): Active | Activity (Cryptococcus neoformans [5]): Active | Activity [6]: Active

COc1ccc(/C=C/C(=O)c2c(O)cc(OC)cc2OC)cc1 [FLAVOKAWAIN A]
MIC (Aspergillus niger [2]): > 800 µM

COc1cc(O)c(C(=O)/C=C/c2ccc(OC)c(-c3cc(/C=C/C(=O)c4c(O)cc(OC)cc4OC)ccc3OC)c2)c(OC)c1
Activity (Aspergillus niger [1]): Active | MIC (Aspergillus niger [2]): 13 µM (≈ 8.15 µg/mL) | Activity (Fusarium solani): inactive | Activity (Aspergillus oryzae): inactive | Activity (Candida albicans [3]): inactive | Activity (Candida parapsilosis [4]): inactive | Activity (Cryptococcus neoformans [5]): inactive | Activity [6]: inactive

O=c1c(-c2c(-c3ccccc3)oc3ccccc3c2=O)c(-c2ccccc2)oc2ccccc12
Activity (Aspergillus niger [1]): inactive | MIC [7]: > 800 µM | Activity (Fusarium solani): inactive | Activity (Aspergillus oryzae): inactive | Activity (Candida albicans [3]): inactive | MIC (Candida parapsilosis [8]): 400 µM (≈ 177 µg/mL) | Activity (Candida parapsilosis [4]): Active | Activity (Cryptococcus neoformans [5]): Active | MIC (Cryptococcus neoformans [9]): > 800 µM | Activity [6]: Active

O=c1cc(-c2ccccc2-c2ccccc2-c2cc(=O)c3ccccc3o2)oc2ccccc12
Activity (Aspergillus niger [1]): Active | MIC (Aspergillus niger [2]): > 800 µM | MIC [7]: 800 µM (≈ 354 µg/mL) | Activity (Fusarium solani): inactive | Activity (Aspergillus oryzae): inactive | Activity (Candida albicans [3]): inactive | Activity (Candida parapsilosis [4]): inactive | Activity (Cryptococcus neoformans [5]): inactive | Activity [6]: Active

COc1ccc(-c2cc(=O)c3c(OC)cc(OC)cc3o2)cc1 [TRIMETHYLAPIGENIN]
MIC (Aspergillus niger [2]): > 800 µM

O=C1CC(c2ccc(OCc3ccccc3)c(-c3cc(C4CC(=O)c5ccc(OCc6ccccc6)cc5O4)ccc3OCc3ccccc3)c2)Oc2cc(OCc3ccccc3)ccc21 (centres undefined)
Activity (Aspergillus niger [1]): inactive | Activity (Fusarium solani): inactive | Activity (Aspergillus oryzae): inactive | Activity (Candida albicans [3]): inactive | Activity (Candida parapsilosis [4]): inactive | Activity (Cryptococcus neoformans [5]): inactive | Activity [6]: inactive

O=C1C[C@@H](c2ccc(O)c(-c3cc([C@@H]4CC(=O)c5c(O)cc(O)cc5O4)ccc3O)c2)Oc2cc(O)cc(O)c21
Activity (Aspergillus niger [1]): inactive | Activity (Fusarium solani): inactive | Activity (Aspergillus oryzae): inactive | Activity (Candida albicans [3]): inactive | Activity (Candida parapsilosis [4]): inactive | Activity (Cryptococcus neoformans [5]): inactive | Activity [6]: inactive

O=C1CC(c2ccc(OCc3ccccc3)cc2)Oc2cc(OCc3ccccc3)cc(O)c21 (centres undefined)
MIC (Candida albicans [10]): > 800 µM

O=c1cc(-c2ccc(O)cc2)oc2ccccc12
MIC (Candida parapsilosis [8]): 200 µM (≈ 47.6 µg/mL)

O=C(/C=C/c1ccccc1-c1ccccc1/C=C/C(=O)c1ccc(OCc2ccccc2)cc1O)c1ccc(OCc2ccccc2)cc1O
Activity (Aspergillus niger [1]): Active | MIC (Aspergillus niger [2]): > 800 µM | Activity (Fusarium solani): inactive | Activity (Aspergillus oryzae): inactive | Activity (Candida albicans [3]): inactive | Activity (Candida parapsilosis [4]): inactive | Activity (Cryptococcus neoformans [5]): Active | MIC (Cryptococcus neoformans [9]): > 800 µM | Activity [6]: inactive

O=c1cc(-c2ccc(O)c(-c3cc(-c4cc(=O)c5c(O)cc(O)cc5o4)ccc3O)c2)oc2cc(O)cc(O)c12
Activity (Aspergillus niger [1]): Active | MIC (Aspergillus niger [2]): 100 µM (≈ 53.8 µg/mL) | Activity (Fusarium solani): inactive | Activity (Aspergillus oryzae): inactive | Activity (Candida albicans [3]): inactive | Activity (Candida parapsilosis [4]): inactive | Activity (Cryptococcus neoformans [5]): inactive | Activity [6]: inactive

O=C(/C=C/c1ccc(OCc2ccccc2)c(-c2cc(/C=C/C(=O)c3ccc(OCc4ccccc4)cc3O)ccc2OCc2ccccc2)c1)c1ccc(OCc2ccccc2)cc1O
Activity (Aspergillus niger [1]): inactive | Activity (Fusarium solani): inactive | Activity (Aspergillus oryzae): inactive | Activity (Candida albicans [3]): inactive | Activity (Candida parapsilosis [4]): inactive | Activity (Cryptococcus neoformans [5]): Active | Activity [6]: inactive

O=C1CC(c2ccccc2-c2ccccc2C2CC(=O)c3ccc(O)cc3O2)Oc2cc(O)ccc21 (centres undefined)
Activity (Aspergillus niger [1]): inactive | Activity (Fusarium solani): inactive | Activity (Aspergillus oryzae): inactive | Activity (Candida albicans [3]): inactive | Activity (Candida parapsilosis [4]): inactive | Activity (Cryptococcus neoformans [5]): inactive | Activity [6]: inactive

COc1cc(OC)c2c(=O)cc(-c3ccc(OC)c(-c4cc(-c5cc(=O)c6c(OC)cc(OC)cc6o5)ccc4OC)c3)oc2c1
Activity (Aspergillus niger [1]): Active | MIC (Aspergillus niger [2]): 400 µM (≈ 249 µg/mL) | Activity (Fusarium solani): inactive | Activity (Aspergillus oryzae): inactive | Activity (Candida albicans [3]): inactive | Activity (Candida parapsilosis [4]): inactive | Activity (Cryptococcus neoformans [5]): inactive | Activity [6]: inactive

O=c1cc(-c2ccc(O)cc2)oc2cc(O)cc(O)c12 [APIGENIN]
MIC (Aspergillus niger [2]): 6 µM (≈ 1.62 µg/mL)

O=C1CC(c2ccccc2-c2ccccc2C2CC(=O)c3ccc(OCc4ccccc4)cc3O2)Oc2cc(OCc3ccccc3)ccc21 (centres undefined)
Activity (Aspergillus niger [1]): inactive | Activity (Fusarium solani): inactive | Activity (Aspergillus oryzae): inactive | Activity (Candida albicans [3]): inactive | Activity (Candida parapsilosis [4]): inactive | Activity (Cryptococcus neoformans [5]): inactive | Activity [6]: inactive

O=C(/C=C/c1ccc(O)cc1)c1c(O)cc(O)cc1O [4,2',4',6'-TETRAHYDROXYCHALCONE]
MIC [7]: 800 µM (≈ 218 µg/mL) | MIC (Candida albicans [10]): > 800 µM | MIC (Cryptococcus neoformans [9]): 400 µM (≈ 109 µg/mL)

COc1ccc(-c2cc(=O)c3cc(-c4ccc5oc(-c6ccc(OC)cc6)cc(=O)c5c4)ccc3o2)cc1
Activity (Aspergillus niger [1]): inactive | Activity (Fusarium solani): inactive | Activity (Aspergillus oryzae): inactive | Activity (Candida albicans [3]): inactive | Activity (Candida parapsilosis [4]): inactive | Activity (Cryptococcus neoformans [5]): inactive | Activity [6]: inactive

O=C(/C=C/c1ccc(O)c(-c2cc(/C=C/C(=O)c3c(O)cc(O)cc3O)ccc2O)c1)c1c(O)cc(O)cc1O
Activity (Aspergillus niger [1]): inactive | MIC [7]: 200 µM (≈ 108 µg/mL) | Activity (Fusarium solani): inactive | MIC (Candida albicans [10]): 800 µM (≈ 434 µg/mL) | Activity (Aspergillus oryzae): inactive | Activity (Candida albicans [3]): Active | Activity (Candida parapsilosis [4]): inactive | Activity (Cryptococcus neoformans [5]): Active | MIC (Cryptococcus neoformans [9]): 13 µM (≈ 7.05 µg/mL) | Activity [6]: Active

O=c1c(O)c(-c2ccc(O)c(-c3cc(-c4oc5cc(O)cc(O)c5c(=O)c4O)ccc3O)c2)oc2cc(O)cc(O)c12
Activity (Aspergillus niger [1]): inactive | Activity (Fusarium solani): inactive | Activity (Aspergillus oryzae): inactive | Activity (Candida albicans [3]): inactive | Activity (Candida parapsilosis [4]): inactive | Activity (Cryptococcus neoformans [5]): inactive | Activity [6]: inactive

O=C(/C=C/c1ccc(OCc2ccccc2)c(-c2cc(/C=C/C(=O)c3c(O)cc(OCc4ccccc4)cc3OCc3ccccc3)ccc2OCc2ccccc2)c1)c1c(O)cc(OCc2ccccc2)cc1OCc1ccccc1
Activity (Aspergillus niger [1]): inactive | Activity (Fusarium solani): inactive | Activity (Aspergillus oryzae): inactive | Activity (Candida albicans [3]): inactive | Activity (Candida parapsilosis [4]): inactive | Activity (Cryptococcus neoformans [5]): inactive | Activity [6]: inactive

O=C1CC(c2ccc(OCc3ccccc3)c(-c3cc(C4CC(=O)c5c(O)cc(OCc6ccccc6)cc5O4)ccc3OCc3ccccc3)c2)Oc2cc(OCc3ccccc3)cc(O)c21 (centres undefined)
Activity (Aspergillus niger [1]): inactive | Activity (Fusarium solani): inactive | MIC (Candida albicans [10]): > 800 µM | Activity (Aspergillus oryzae): inactive | Activity (Candida albicans [3]): Active | Activity (Candida parapsilosis [4]): inactive | Activity (Cryptococcus neoformans [5]): inactive | Activity [6]: inactive

O=C(/C=C/c1ccccc1)c1ccc(OCc2ccccc2)cc1O
MIC (Aspergillus niger [2]): 100 µM (≈ 33 µg/mL) | MIC (Cryptococcus neoformans [9]): > 800 µM

O=c1cc(-c2ccc(O)cc2)oc2ccc(-c3ccc4oc(-c5ccc(O)cc5)cc(=O)c4c3)cc12
Activity (Aspergillus niger [1]): inactive | Activity (Fusarium solani): inactive | Activity (Aspergillus oryzae): inactive | Activity (Candida albicans [3]): inactive | MIC (Candida parapsilosis [8]): 400 µM (≈ 190 µg/mL) | Activity (Candida parapsilosis [4]): Active | Activity (Cryptococcus neoformans [5]): inactive | Activity [6]: inactive
